This note sets out measurements from ChEMBL document CHEMBL3044660, “Synthesis of 2-amino-6-oxocyclohexenylsulfonamides and their activity against Botrytis cinerea” (Pest Manag Sci, 2011).

≈ marks a conversion by molar mass, not a printed value.

For assay [1], the system named is Botrytis cinerea. Kind of assay: Fungicidal activity against Botryotinia fuckeliana assessed as inhibition of spore germination measured after 24 hr. The format is functional, organism-based.
The test system of assay [2] is Botrytis cinerea. As to the kind of experiment: Fungicidal activity against Botryotinia fuckeliana in 2 hr compound pretreated cucumber seedling assessed as inhibition of spot diameter squared as control efficiency at 200 ug/ml measured after 72 hr. More on the design: scale not given: the % may be the effect or the level left. The format is functional.
Assay [3] deals with Botrytis cinerea. As to the kind of experiment: Fungicidal activity against Botryotinia fuckeliana assessed as inhibition of mycelial growth measured after 72 hr. The assay is classed as functional, organism-based.
In assay [4] the test system is Botrytis cinerea. Kind of assay: Fungicidal activity against Botryotinia fuckeliana assessed as germ-tube elongation inhibition at 50 ug/ml measured after 24 hr. The format is functional.

On to `CC1(C)CC(=O)C(S(=O)(=O)Nc2ccc(Cl)cc2)=C(Nc2ccc(Cl)cc2)C1`, for which, in the assay with Botrytis cinerea [1], the EC50 came to 0.54 µg/mL (≈ 1.23 µM) and the EC80 stood at 7.04 µg/mL (≈ 16 µM). The Activity in the assay with Botrytis cinerea [2] is given as 65.89%. Moreover, in the assay with Botrytis cinerea [3], the half-maximal effective concentration (EC50) is 128 µg/mL (≈ 290 µM). Also, in the assay on Botrytis cinerea [4], the inhibition at 50 µg/mL turned out to be 78.6%.

For the molecule `CC1(C)CC(=O)C(S(=O)(=O)Nc2ccccc2Cl)=C(Nc2ccccc2Cl)C1`, the concentration giving a half-maximal response (EC50) in the assay on Botrytis cinerea [1] turned out to be 0.34 µg/mL (≈ 0.774 µM); in the assay with Botrytis cinerea [3] it was 21.2 µg/mL (≈ 48.2 µM). In addition, the 80% effect concentration (EC80) in the assay with Botrytis cinerea [1] turned out to be 4.53 µg/mL (≈ 10.3 µM). Also, in the assay with Botrytis cinerea [2], the Activity amounted to 73.39%. In addition, the inhibition at 50 µg/mL with Botrytis cinerea [4] is 85.7%.

Take `O=C1CCCC(Nc2ccccc2Cl)=C1S(=O)(=O)Nc1ccccc1Cl`: in the assay with Botrytis cinerea [1], the EC50 stood at 0.37 µg/mL (≈ 0.9 µM) and the EC80 came to 60.9 µg/mL (≈ 148 µM). In the assay with Botrytis cinerea [2], the Activity was 74.81%. Also, the 50% effective concentration (EC50) with Botrytis cinerea [3] came out at 10.6 µg/mL (≈ 25.7 µM). For the same molecule, the inhibition at 50 µg/mL in the assay with Botrytis cinerea [4] amounted to 81.9%.

For `CC1(C)CC(=O)C(S(=O)(=O)Nc2ccccc2)=C(Nc2ccccc2)C1`, in the assay with Botrytis cinerea [1], the concentration giving a half-maximal response (EC50) was 96.6 µg/mL (≈ 261 µM) and the EC80 was more than 200 µg/mL. Moreover, the Activity in the assay with Botrytis cinerea [2] turned out to be 61.17%. Moreover, the half-maximal effective concentration (EC50) in the assay with Botrytis cinerea [3] was 147 µg/mL (≈ 398 µM). Moreover, the inhibition at 50 µg/mL in the assay with Botrytis cinerea [4] worked out at 21.4%.

Turning to `CC1(C)CC(=O)C(S(=O)(=O)NC2CCCCC2)=C(NC2CCCCC2)C1`, in the assay on Botrytis cinerea [1], the EC50 stood at 0.64 µg/mL (≈ 1.67 µM) and the EC80 is 15.4 µg/mL (≈ 40.3 µM). The Activity in the assay on Botrytis cinerea [2] worked out at 82.21%. For the same molecule, the EC50 in the assay with Botrytis cinerea [3] stood at 63.7 µg/mL (≈ 167 µM). For the same molecule, in the assay with Botrytis cinerea [4], the inhibition at 50 µg/mL is 61.5%.

Regarding `CC1(C)CC(=O)C(S(=O)(=O)Nc2ccc(Cl)c(Cl)c2)=C(Nc2ccc(Cl)c(Cl)c2)C1`, the concentration for a half-maximal effect (EC50) in the assay on Botrytis cinerea [1] is 2.66 µg/mL (≈ 5.23 µM); with Botrytis cinerea [3], 67.7 µg/mL (≈ 133 µM). The EC80 in the assay with Botrytis cinerea [1] was found to be 12.3 µg/mL (≈ 24.2 µM). The Activity in the assay on Botrytis cinerea [2] is 69.77%. In addition, the inhibition at 50 µg/mL in the assay on Botrytis cinerea [4] turned out to be 64.3%.

For `CC12CC1(C)C(=O)N(c1cc(Cl)cc(Cl)c1)C2=O` (stereo not given) [PROCYMIDONE], in the assay on Botrytis cinerea [1], the EC50 amounted to 0.98 µg/mL (≈ 3.45 µM) and the concentration for an effect of 80% (EC80) came to 3.18 µg/mL (≈ 11.2 µM). Further, the Activity in the assay with Botrytis cinerea [2] is given as 80.39%. Moreover, in the assay on Botrytis cinerea [3], the EC50 was 0.63 µg/mL (≈ 2.22 µM). In the assay with Botrytis cinerea [4], the inhibition at 50 µg/mL is 100%.

As for `CCCNC1=C(S(=O)(=O)NCCC)C(=O)CC(C)(C)C1`, the values for the EC50 in the assay with Botrytis cinerea [1] and in the assay on Botrytis cinerea [3] were 0.23 µg/mL (≈ 0.76 µM) and 149 µg/mL (≈ 494 µM), respectively. Moreover, the EC80 in the assay on Botrytis cinerea [1] amounted to 15.6 µg/mL (≈ 51.7 µM). The Activity with Botrytis cinerea [2] was found to be 66.59%. Further, the inhibition at 50 µg/mL in the assay on Botrytis cinerea [4] was found to be 51.2%.

As to `Cc1ccccc1NC1=C(S(=O)(=O)Nc2ccccc2C)C(=O)CC(C)(C)C1`, the values for the half-maximal effective concentration (EC50) in the assay with Botrytis cinerea [1] and in the assay with Botrytis cinerea [3] were 19.5 µg/mL (≈ 49 µM) and 8.05 µg/mL (≈ 20.2 µM), respectively. For the same molecule, in the assay with Botrytis cinerea [1], the 80% effect concentration (EC80) came out at 140 µg/mL (≈ 352 µM). In the assay with Botrytis cinerea [2], the Activity turned out to be 64.43%. Besides, the inhibition at 50 µg/mL in the assay with Botrytis cinerea [4] turned out to be 57.2%.

Regarding `CC1(C)CC(=O)C(S(=O)(=O)Nc2cccc(Cl)c2)=C(Nc2cccc(Cl)c2)C1`, the concentration for a half-maximal effect (EC50) was determined as 3.03 µg/mL (≈ 6.9 µM) with Botrytis cinerea [1] and 32.7 µg/mL (≈ 74.4 µM) with Botrytis cinerea [3]. Moreover, the 80% effect concentration (EC80) in the assay with Botrytis cinerea [1] is 128 µg/mL (≈ 290 µM). Moreover, the Activity in the assay on Botrytis cinerea [2] turned out to be 58.51%. The inhibition at 50 µg/mL in the assay on Botrytis cinerea [4] is 58.6%.

Regarding `CC1(C)CC(=O)C(S(=O)(=O)Nc2ccc(Br)cc2)=C(Nc2ccc(Br)cc2)C1`, in the assay on Botrytis cinerea [1], the EC50 is 1.44 µg/mL (≈ 2.73 µM) and the concentration for an effect of 80% (EC80) was found to be 7.39 µg/mL (≈ 14 µM). For the same molecule, the Activity in the assay with Botrytis cinerea [2] is 45.09%. Besides, the EC50 in the assay with Botrytis cinerea [3] came to 39.1 µg/mL (≈ 74.1 µM). Further, the inhibition at 50 µg/mL in the assay on Botrytis cinerea [4] was 67.9%.

Take `CC1(C)CC(=O)C(S(=O)(=O)Nc2cccc(C(F)(F)F)c2)=C(Nc2cccc(C(F)(F)F)c2)C1`: in the assay with Botrytis cinerea [1], the EC50 came out at 0.16 µg/mL (≈ 0.316 µM) and the EC80 turned out to be 14.2 µg/mL (≈ 27.9 µM). Besides, the Activity in the assay with Botrytis cinerea [2] turned out to be 67.74%. In addition, in the assay with Botrytis cinerea [3], the EC50 was found to be 156 µg/mL (≈ 308 µM). In addition, in the assay on Botrytis cinerea [4], the inhibition at 50 µg/mL stood at 30.6%.

Take `CC1(C)CC(=O)C(S(=O)(=O)Nc2cc(C(F)(F)F)cc(C(F)(F)F)c2)=C(Nc2cc(C(F)(F)F)cc(C(F)(F)F)c2)C1`: the half-maximal effective concentration (EC50) in the assay with Botrytis cinerea [1] was found to be 0.51 µg/mL (≈ 0.794 µM); in the assay with Botrytis cinerea [3], 92.2 µg/mL (≈ 144 µM). Moreover, the concentration for an effect of 80% (EC80) in the assay with Botrytis cinerea [1] worked out at 34.8 µg/mL (≈ 54.2 µM). For the same molecule, in the assay with Botrytis cinerea [2], the Activity is given as 75.29%. The inhibition at 50 µg/mL with Botrytis cinerea [4] stood at 61.5%.

Take `Cc1cc(F)ccc1NC1=C(S(=O)(=O)Nc2ccc(F)cc2C)C(=O)CC(C)(C)C1`: in the assay on Botrytis cinerea [1], the concentration giving a half-maximal response (EC50) worked out at 1.59 µg/mL (≈ 3.66 µM) and the EC80 is more than 200 µg/mL. In the assay on Botrytis cinerea [2], the Activity is given as 73.46%. Also, the EC50 in the assay on Botrytis cinerea [3] amounted to 45.7 µg/mL (≈ 105 µM). Also, in the assay with Botrytis cinerea [4], the inhibition at 50 µg/mL came to 42.9%.

As for `CC1(C)CC(=O)C(S(=O)(=O)NCc2ccccc2)=C(NCc2ccccc2)C1`, in the assay with Botrytis cinerea [1], the EC50 amounted to 73.4 µg/mL (≈ 184 µM) and the EC80 is 139 µg/mL (≈ 349 µM). For the same molecule, in the assay on Botrytis cinerea [2], the Activity turned out to be 42.16%. Further, the EC50 with Botrytis cinerea [3] worked out at 26.4 µg/mL (≈ 66.2 µM). Also, the inhibition at 50 µg/mL in the assay on Botrytis cinerea [4] amounted to 28.6%.

As for `O=C1CCCC(Nc2ccc(Cl)cc2)=C1S(=O)(=O)Nc1ccc(Cl)cc1`, in the assay on Botrytis cinerea [1], the EC50 was 0.26 µg/mL (≈ 0.632 µM) and the EC80 is more than 200 µg/mL. In addition, the Activity in the assay with Botrytis cinerea [2] was determined as 53.57%. Also, the EC50 in the assay on Botrytis cinerea [3] worked out at 125 µg/mL (≈ 305 µM). Also, the inhibition at 50 µg/mL in the assay with Botrytis cinerea [4] came out at 61.3%.

As to `CC1(C)CC(=O)C(S(=O)(=O)Nc2ccc(Cl)cc2C(F)(F)F)=C(Nc2ccc(Cl)cc2C(F)(F)F)C1`, in the assay with Botrytis cinerea [1], the EC50 was found to be 6.14 µg/mL (≈ 10.7 µM) and the EC80 is more than 200 µg/mL. Further, the Activity in the assay with Botrytis cinerea [2] was found to be 47.92%. For the same molecule, in the assay with Botrytis cinerea [3], the 50% effective concentration (EC50) was determined as 154 µg/mL (≈ 268 µM). For the same molecule, the inhibition at 50 µg/mL in the assay with Botrytis cinerea [4] amounted to 51.1%.

Regarding `Cc1ccc(NC2=C(S(=O)(=O)Nc3ccc(C)cc3)C(=O)CC(C)(C)C2)cc1`, the EC50 in the assay on Botrytis cinerea [1] came to 3.29 µg/mL (≈ 8.26 µM); in the assay on Botrytis cinerea [3] it was 22.8 µg/mL (≈ 57.2 µM). Besides, the concentration for an effect of 80% (EC80) in the assay with Botrytis cinerea [1] stood at 72.1 µg/mL (≈ 181 µM). Also, the Activity in the assay on Botrytis cinerea [2] was 58.6%. For the same molecule, the inhibition at 50 µg/mL in the assay on Botrytis cinerea [4] turned out to be 57.2%.

With `Cc1ccc(NC2=C(S(=O)(=O)Nc3ccc(C)cc3)C(=O)CCC2)cc1`, the concentration for a half-maximal effect (EC50) in the assay on Botrytis cinerea [1] came to 0.54 µg/mL (≈ 1.46 µM); in the assay with Botrytis cinerea [3], 47.4 µg/mL (≈ 128 µM). For the same molecule, the EC80 in the assay with Botrytis cinerea [1] was 117 µg/mL (≈ 315 µM). The Activity in the assay with Botrytis cinerea [2] turned out to be 57.48%. In addition, the inhibition at 50 µg/mL in the assay with Botrytis cinerea [4] worked out at 20.5%.

As a reminder, the EC50 is the concentration needed to bring the measured effect to its halfway point. As a reminder, the EC80 is the concentration at which the effect reaches the 80% level. As a reminder, the inhibition is the relative decrease from the control value, in per cent.
